Data as given in ChEMBL document CHEMBL3994570, “Euphorbia dendroides Latex as a Source of Jatrophane Esters: Isolation, Structural Analysis, Conformational Study, and Anti-CHIKV Activity” (J Nat Prod, 2016).
Calls of active or inactive are those of the source. No cut-off for these calls is given here.

Tests used:
Chikungunya virus = assay: Antiviral activity against Chikungunya virus 899 infected in African green monkey Vero cells assessed as inhibition of virus-induced cytopathic effect after 6 to 7 days by MTS assay; type: functional; conditions: for EC50: Chikungunya virus, 899, Vero
Vero = assay: (§1) Cytotoxicity against African green monkey Vero cells assessed as reduction in metabolic activity by MTS assay; type: ADME, cell-based; conditions: chlorocebus sabaeus, vero
[1] = Selectivity index, ratio of CC50 for African green monkey Vero cells to EC50 for Chikungunya virus 899 infected in African green monkey Vero cells; type: toxicity; conditions: read-out: Ratio CC50/EC50
[2] = as §1; type: ADME, cell-based; conditions: chlorocebus sabaeus, Vero cells

C=C1[C@H](O)[C@H]2[C@@H](OC(=O)c3ccccc3)[C@](C)(O)C[C@]2(O)C(=O)[C@@H](C)/C=C/C(C)(C)[C@H](OC(C)=O)[C@H](OC(C)=O)[C@H]1OC(=O)c1ccccc1
inhibition (Chikungunya virus): inactive

C=C1[C@H](C(=O)C(C)C)[C@H]2[C@@H](OC(C)=O)[C@](C)(O)C[C@]2(O)C(=O)[C@@H](C)/C=C/C(C)(C)[C@H](OC(C)=O)[C@H](OC(C)=O)[C@H]1OC(=O)c1ccccc1
inhibition (Chikungunya virus): inactive

C=C1[C@H](OC(=O)c2ccccc2)[C@@H](OC(C)=O)[C@@H](OC(C)=O)C(C)(C)/C=C/[C@H](C)C(=O)[C@@]2(O)C[C@@](C)(OC(C)=O)[C@H](O)[C@@H]2[C@H]1OC(=O)c1ccccc1
Activity (Vero): Non-Toxic | inhibition (Chikungunya virus): inactive

C=C1[C@H](OC(=O)c2ccccc2)[C@@H](OC(C)=O)[C@@H](OC(C)=O)C(C)(C)/C=C/[C@H](C)C(=O)[C@@]2(O)C[C@@](C)(OC(C)=O)[C@H](OC(=O)C(C)C)[C@@H]2[C@H]1OC(=O)C(C)C
inhibition (Chikungunya virus): inactive

C=C1[C@H](OC(=O)c2ccccc2)[C@@H](OC(C)=O)[C@@H](OC(C)=O)C(C)(C)/C=C/[C@H](C)C(=O)[C@@]2(O)C[C@@](C)(OC(C)=O)[C@H](OC(C)=O)[C@@H]2[C@H]1OC(=O)C(C)C
inhibition (Chikungunya virus): inactive

C=C1[C@H](OC(=O)c2ccccc2)[C@@H](OC(C)=O)[C@@H](OC(C)=O)C(C)(C)/C=C/[C@H](C)C(=O)[C@@]2(O)C[C@@](C)(OC(C)=O)[C@H](O)[C@@H]2[C@H]1OC(=O)C(C)C
inhibition (Chikungunya virus): inactive

C=C1[C@H](C(=O)C(C)C)[C@H]2[C@@H](OC(C)=O)[C@@H](C)C[C@]2(O)C(=O)[C@@H](C)/C=C/C(C)(C)[C@H](OC(C)=O)[C@H](OC(C)=O)[C@H]1OC(=O)c1ccccc1
inhibition (Chikungunya virus): inactive

C=C1[C@H](OC(=O)c2ccccc2)[C@@H](OC(C)=O)[C@@H](OC(C)=O)C(C)(C)/C=C/[C@H](C)C(=O)[C@@]2(O)C[C@@](C)(OC(C)=O)[C@H](O)[C@@H]2[C@H]1OC(=O)C(C)CC (some centres not stated)
Activity (Vero): Non-Toxic | inhibition (Chikungunya virus): inactive

CC(=O)O[C@H]1[C@@H](OC(C)=O)C(C)(C)/C=C/[C@@](C)(O)C(=O)[C@@]2(O)C[C@@](C)(OC(C)=O)[C@H](OC(C)=O)[C@@H]2[C@H]2OC(=O)CC[C@@]2(OC(C)=O)[C@@H]1OC(=O)C(C)C
inhibition (Chikungunya virus): inactive

C=C1[C@H](OC(=O)C(C)C)[C@@H](OC(C)=O)[C@@H](OC(C)=O)C(C)(C)/C=C/[C@H](C)C(=O)[C@@]2(O)C[C@@](C)(OC(C)=O)[C@H](OC(=O)COC(=O)c3ccccc3)[C@@H]2[C@H]1OC(C)=O
selectivity ratio [1]: 3.2 | CC50 [2]: 17.7 µM | EC50 (Chikungunya virus): 5.5 µM

CC(=O)O[C@H]1[C@@H](OC(C)=O)C(C)(C)/C=C/[C@H](C)C(=O)[C@@]2(OC(C)=O)C[C@@](C)(OC(C)=O)[C@H](O)[C@@H]2[C@H]2OC(=O)CC[C@@]2(OC(C)=O)[C@@H]1OC(=O)C(C)C
inhibition (Chikungunya virus): inactive

C=C1[C@H](OC(=O)c2ccccc2)[C@@H](O)[C@@H](OC(C)=O)C(C)(C)/C=C/[C@H](C)C(=O)[C@@]2(O)C[C@@](C)(OC(C)=O)[C@H](O)[C@@H]2[C@H]1OC(=O)c1ccccc1
Activity (Vero): Non-Toxic | inhibition (Chikungunya virus): inactive

C=C1[C@H](OC(=O)C(C)C)[C@@H](OC(C)=O)[C@@H](OC(C)=O)C(C)(C)/C=C/[C@H](C)C(=O)[C@@]2(O)C[C@@](C)(OC(C)=O)[C@H](OC(=O)c3ccccc3)[C@@H]2[C@H]1OC(=O)C(C)C
inhibition (Chikungunya virus): inactive

CC(=O)O[C@H]1[C@@H](OC(C)=O)C(C)(C)/C=C/[C@H](C)C(=O)[C@@]2(O)C[C@@](C)(OC(C)=O)[C@H](OC(C)=O)[C@@H]2[C@H]2OC(=O)CC[C@@]2(OC(=O)C(C)C)[C@@H]1OC(=O)C(C)C
selectivity ratio [1]: 2.4 | CC50 [2]: 36 µM | EC50 (Chikungunya virus): 15 µM

CC(=O)O[C@H]1[C@@H](OC(C)=O)C(C)(C)/C=C/[C@@](C)(O)C(=O)[C@@]2(OC(C)=O)C[C@@](C)(OC(C)=O)[C@H](OC(C)=O)[C@@H]2[C@H]2OC(=O)CC[C@@]2(OC(C)=O)[C@@H]1OC(=O)C(C)C
inhibition (Chikungunya virus): inactive
